How the values were obtained:
[1] = molecular target: T1, Relaxin receptor 1 (Homo sapiens, UniProt Q9HBX9); assay: Agonist activity at human RXFP1 stably expressed in HEK293 cells assessed as intracellular cAMP accumulation incubated for 30 mins by HTRF assay
T1 sequence (Q9HBX9 whole entry): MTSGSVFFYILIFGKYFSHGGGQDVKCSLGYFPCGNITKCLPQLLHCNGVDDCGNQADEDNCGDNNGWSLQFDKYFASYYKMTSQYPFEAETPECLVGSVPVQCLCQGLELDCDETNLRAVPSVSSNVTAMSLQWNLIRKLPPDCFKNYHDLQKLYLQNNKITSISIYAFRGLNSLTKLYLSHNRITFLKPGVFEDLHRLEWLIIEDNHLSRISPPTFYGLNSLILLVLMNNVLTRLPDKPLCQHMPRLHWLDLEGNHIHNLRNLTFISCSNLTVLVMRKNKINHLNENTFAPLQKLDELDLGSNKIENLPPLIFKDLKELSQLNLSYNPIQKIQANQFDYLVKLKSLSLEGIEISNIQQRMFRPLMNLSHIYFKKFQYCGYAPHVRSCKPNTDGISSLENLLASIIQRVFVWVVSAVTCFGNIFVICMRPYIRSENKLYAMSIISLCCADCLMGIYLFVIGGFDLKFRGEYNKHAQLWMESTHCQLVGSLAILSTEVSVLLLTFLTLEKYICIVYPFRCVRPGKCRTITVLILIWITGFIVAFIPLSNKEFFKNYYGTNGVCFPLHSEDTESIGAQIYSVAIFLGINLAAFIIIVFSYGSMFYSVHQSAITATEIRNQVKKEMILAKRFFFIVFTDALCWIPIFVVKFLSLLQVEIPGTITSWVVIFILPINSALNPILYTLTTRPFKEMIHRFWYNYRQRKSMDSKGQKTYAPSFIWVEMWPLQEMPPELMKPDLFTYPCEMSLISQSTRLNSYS

[2] = Microsomal stability in human liver microsomes assessed as half life; type: ADME, Microsome
[3] = Microsomal stability in mouse liver microsomes assessed as half life; type: ADME, Microsome
[4] = Total AUC in Sprague-Dawley rat at 1 mg/kg, iv; type: ADME, organism-based; details: in vivo
[5] = Half life in Sprague-Dawley rat at 1 mg/kg, iv; type: ADME, organism-based; details: in vivo
[6] = molecular target: T2, Cytochrome P450 2C8 (Homo sapiens, UniProt P10632); assay: Inhibition of CYP2C8 (unknown origin)
T2 sequence (P10632 whole entry): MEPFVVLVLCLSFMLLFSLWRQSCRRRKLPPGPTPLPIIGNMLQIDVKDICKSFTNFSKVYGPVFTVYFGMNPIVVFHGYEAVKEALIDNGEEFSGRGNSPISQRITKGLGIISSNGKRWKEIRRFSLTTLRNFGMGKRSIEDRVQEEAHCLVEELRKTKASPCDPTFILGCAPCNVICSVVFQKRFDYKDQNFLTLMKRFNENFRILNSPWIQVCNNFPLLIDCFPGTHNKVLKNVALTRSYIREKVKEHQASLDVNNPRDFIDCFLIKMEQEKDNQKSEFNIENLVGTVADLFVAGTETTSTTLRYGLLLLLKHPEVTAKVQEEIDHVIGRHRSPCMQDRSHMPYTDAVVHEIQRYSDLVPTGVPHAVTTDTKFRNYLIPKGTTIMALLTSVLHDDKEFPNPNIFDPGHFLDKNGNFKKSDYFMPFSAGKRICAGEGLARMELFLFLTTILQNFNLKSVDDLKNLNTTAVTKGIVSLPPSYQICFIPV

[7] = molecular target: Cytochrome P450 2C9 (Homo sapiens, UniProt P11712); assay: Inhibition of CYP2C9 (unknown origin)
[8] = molecular target: Cytochrome P450 2C19 (Homo sapiens, UniProt P33261); assay: Inhibition of CYP2C19 (unknown origin)
[9] = molecular target: Cytochrome P450 2D6 (Homo sapiens, UniProt P10635); assay: Inhibition of CYP2D6 (unknown origin)
[10] = molecular target: Cytochrome P450 3A4 (Homo sapiens, UniProt P08684); assay: Inhibition of CYP3A4 (unknown origin)
[11] = molecular target: T3, Nuclear receptor subfamily 1 group I member 2 (Homo sapiens, UniProt O75469); assay: Activation of PXR (unknown origin)
T3 sequence (O75469 whole entry): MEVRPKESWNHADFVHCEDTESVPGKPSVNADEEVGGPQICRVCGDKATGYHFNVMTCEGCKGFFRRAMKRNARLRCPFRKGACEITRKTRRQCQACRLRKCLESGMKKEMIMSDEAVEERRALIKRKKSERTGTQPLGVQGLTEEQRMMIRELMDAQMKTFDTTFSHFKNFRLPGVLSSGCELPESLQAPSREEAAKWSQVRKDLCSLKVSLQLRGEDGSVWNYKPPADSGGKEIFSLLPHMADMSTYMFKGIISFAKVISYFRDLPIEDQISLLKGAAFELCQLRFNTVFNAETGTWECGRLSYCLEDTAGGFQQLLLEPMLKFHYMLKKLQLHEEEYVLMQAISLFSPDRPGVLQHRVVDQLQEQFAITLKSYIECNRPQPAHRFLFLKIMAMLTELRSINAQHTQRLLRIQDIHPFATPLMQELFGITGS

[12] = molecular target: hERG (Homo sapiens, UniProt Q12809); assay: Inhibition of hERG (unknown origin) at 30 uM by patch clamp assay relative to control
[13] = molecular target: L-type calcium channel (Homo sapiens, UniProt O60840+Q01668+Q13698+Q13936); assay: Inhibition of L-type calcium channel (unknown origin) at 10 uM by patch clamp assay relative to control
[14] = tested on: Mus musculus; assay: Expansion of interpubic ligament in estrogen-treated female C57BL/6 mouse assessed as symphysis widening at 25 mg/kg, iv administered on day 7 and measured on day 8 by microCT analysis (reference value: 17.6 %); type: functional; details: time 1 day

Chain of Cytochrome P450 2C19 (P33261 whole entry): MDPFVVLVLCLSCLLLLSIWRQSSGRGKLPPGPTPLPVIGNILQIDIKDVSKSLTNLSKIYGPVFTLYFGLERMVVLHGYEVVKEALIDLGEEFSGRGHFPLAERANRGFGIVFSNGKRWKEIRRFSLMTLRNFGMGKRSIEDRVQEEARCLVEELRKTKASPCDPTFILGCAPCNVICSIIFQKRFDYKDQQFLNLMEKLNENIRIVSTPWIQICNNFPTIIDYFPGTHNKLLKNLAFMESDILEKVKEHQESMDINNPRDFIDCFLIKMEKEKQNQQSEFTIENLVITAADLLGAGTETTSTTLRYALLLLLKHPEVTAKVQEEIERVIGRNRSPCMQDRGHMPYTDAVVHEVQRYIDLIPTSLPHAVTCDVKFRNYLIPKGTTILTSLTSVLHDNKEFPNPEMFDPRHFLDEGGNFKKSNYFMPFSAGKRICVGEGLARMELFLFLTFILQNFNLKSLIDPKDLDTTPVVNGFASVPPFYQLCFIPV
Chain of Cytochrome P450 2C9 (P11712 whole entry): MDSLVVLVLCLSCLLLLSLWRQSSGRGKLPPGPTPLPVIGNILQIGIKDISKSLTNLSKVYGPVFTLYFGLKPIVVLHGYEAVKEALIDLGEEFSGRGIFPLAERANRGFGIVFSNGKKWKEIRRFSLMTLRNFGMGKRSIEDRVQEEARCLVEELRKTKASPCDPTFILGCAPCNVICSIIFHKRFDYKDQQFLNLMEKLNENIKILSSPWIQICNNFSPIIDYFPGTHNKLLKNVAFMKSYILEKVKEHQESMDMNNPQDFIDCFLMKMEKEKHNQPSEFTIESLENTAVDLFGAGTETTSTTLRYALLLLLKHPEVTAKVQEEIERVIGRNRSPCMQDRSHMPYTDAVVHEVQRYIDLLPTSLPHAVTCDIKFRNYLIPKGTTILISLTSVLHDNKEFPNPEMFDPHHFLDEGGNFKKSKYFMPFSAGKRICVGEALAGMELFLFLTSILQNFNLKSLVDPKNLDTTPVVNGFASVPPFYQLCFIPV
Chain of hERG (Q12809 whole entry): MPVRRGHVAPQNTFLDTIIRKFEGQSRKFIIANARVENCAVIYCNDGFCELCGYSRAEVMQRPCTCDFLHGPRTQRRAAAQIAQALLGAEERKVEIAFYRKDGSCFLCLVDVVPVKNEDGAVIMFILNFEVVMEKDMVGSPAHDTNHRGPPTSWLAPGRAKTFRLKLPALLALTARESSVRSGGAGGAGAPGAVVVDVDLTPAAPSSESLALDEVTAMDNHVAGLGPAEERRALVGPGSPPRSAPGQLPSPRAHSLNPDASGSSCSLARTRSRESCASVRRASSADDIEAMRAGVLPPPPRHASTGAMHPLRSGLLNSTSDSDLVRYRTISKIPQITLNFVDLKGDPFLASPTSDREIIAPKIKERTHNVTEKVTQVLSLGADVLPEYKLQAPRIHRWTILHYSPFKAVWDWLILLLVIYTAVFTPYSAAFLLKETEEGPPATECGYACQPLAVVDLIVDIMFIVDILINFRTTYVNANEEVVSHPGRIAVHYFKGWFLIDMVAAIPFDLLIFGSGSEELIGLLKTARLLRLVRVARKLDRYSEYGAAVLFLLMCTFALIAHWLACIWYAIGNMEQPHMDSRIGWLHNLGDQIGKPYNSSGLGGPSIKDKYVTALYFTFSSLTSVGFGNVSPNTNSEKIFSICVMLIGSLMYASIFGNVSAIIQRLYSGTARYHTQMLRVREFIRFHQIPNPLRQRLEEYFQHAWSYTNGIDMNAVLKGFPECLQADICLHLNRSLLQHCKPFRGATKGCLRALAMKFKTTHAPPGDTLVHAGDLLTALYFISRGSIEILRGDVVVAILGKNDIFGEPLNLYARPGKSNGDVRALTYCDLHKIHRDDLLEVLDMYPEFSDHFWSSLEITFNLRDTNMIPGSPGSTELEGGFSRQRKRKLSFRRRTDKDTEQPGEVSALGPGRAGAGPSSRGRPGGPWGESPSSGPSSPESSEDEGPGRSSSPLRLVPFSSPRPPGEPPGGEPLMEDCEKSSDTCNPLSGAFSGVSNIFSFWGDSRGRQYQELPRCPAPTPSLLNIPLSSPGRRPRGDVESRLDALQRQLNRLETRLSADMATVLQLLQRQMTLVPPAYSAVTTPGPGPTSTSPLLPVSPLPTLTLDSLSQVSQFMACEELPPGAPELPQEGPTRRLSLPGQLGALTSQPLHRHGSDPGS
Chain of Cytochrome P450 3A4 (P08684 whole entry): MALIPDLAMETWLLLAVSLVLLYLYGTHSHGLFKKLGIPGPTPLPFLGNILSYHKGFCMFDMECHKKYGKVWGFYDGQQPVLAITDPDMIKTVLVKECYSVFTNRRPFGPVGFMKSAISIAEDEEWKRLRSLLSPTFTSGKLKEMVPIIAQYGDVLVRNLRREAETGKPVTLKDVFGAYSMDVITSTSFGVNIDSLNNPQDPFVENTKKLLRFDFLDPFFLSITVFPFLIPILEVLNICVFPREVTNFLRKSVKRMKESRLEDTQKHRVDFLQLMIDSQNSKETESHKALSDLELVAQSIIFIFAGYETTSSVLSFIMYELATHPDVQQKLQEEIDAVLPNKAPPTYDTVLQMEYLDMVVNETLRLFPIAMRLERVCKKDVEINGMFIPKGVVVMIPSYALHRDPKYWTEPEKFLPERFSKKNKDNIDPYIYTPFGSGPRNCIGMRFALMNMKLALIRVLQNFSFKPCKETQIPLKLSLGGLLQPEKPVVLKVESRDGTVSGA
Chain of Cytochrome P450 2D6 (P10635 whole entry): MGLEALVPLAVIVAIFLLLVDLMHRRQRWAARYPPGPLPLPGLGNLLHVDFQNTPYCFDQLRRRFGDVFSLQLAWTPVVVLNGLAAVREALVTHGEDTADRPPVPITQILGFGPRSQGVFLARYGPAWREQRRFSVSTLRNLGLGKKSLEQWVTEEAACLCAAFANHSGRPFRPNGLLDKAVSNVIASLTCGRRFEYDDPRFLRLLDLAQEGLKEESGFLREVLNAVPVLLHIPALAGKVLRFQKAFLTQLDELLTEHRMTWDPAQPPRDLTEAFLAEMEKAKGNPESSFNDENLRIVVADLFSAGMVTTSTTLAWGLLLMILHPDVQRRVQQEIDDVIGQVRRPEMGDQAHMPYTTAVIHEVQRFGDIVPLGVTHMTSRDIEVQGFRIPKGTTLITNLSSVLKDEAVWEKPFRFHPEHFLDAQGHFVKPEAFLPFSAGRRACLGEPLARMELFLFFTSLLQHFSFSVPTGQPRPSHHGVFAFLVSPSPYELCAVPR

Structure (SMILES): CNC(=O)OC(C(=O)O)c1ccc(F)c(-c2ccc(OC)c(C(=O)N[C@H]3[C@@H](C(=O)Nc4ccc(F)c(C(F)(F)F)c4)[C@H]4CC[C@@H]3/C4=C\C3CC3)c2)c1 (stereo in doubt; 39)
- EC50 [1]: 0.002 µM
- half-life [2]: > 2 h
- half-life [3]: > 2 h
- AUC [4]: 9.6 µM·h
- half-life [5]: 4.43 h
- IC50 [6]: 2.6 µM
- IC50 [7]: 4 µM
- IC50 [8]: 17 µM
- IC50 [9]: > 20 µM
- IC50 [10]: > 20 µM
- EC50 [11]: > 50 µM
- inhibition at 30 µM [12]: 7%
- inhibition at 10 µM [13]: 33%
- Activity [14]: 500.4%

Source: ChEMBL document CHEMBL6182920, “The Discovery of C7-Substituted Norbornyl Bisamides as RXFP1 Small Molecule Agonists” (J Med Chem, 2025)
